Reference: paper PMC9456491, “Targeting the Mitochondrial Protein VDAC1 as a Potential Therapeutic Strategy in ALS” (International Journal of Molecular Sciences, 2022)

Experiments:
[1] = system: mutant SOD1^G93A transgenic mice; assay: SOD1^G93A mouse ALS model, drinking water treatment; type: in vivo; settings: SOD1^G93A female mice, drinking water 0.0625 mg/mL, about 20 mg/kg daily; n = 10; vs DMSO
Experimental: (§1) Mutant SOD1^G93A transgenic mice (B6SJL-TgN-SOD1-G93A-1Gur) were obtained from The Jackson Laboratory (Bar Harbor, ME, USA) for the experiments. All experiments were approved by the Animal Care and Use Committee of Ben-Gurion University of the Negev, as required by Israeli legislation, and all efforts were taken to minimize animal suffering.
VBIT-4 and VBIT-12 were dissolved in DMSO (80 mg/mL) and then diluted in drinking water while being added in a dropwise manner into the acidic water to a final concentration of 0.0625 mg/mL. Considering an estimated daily water consumption of a 25 g mouse as 6–8 mL per mouse, the daily dose of VBIT-4 and VBIT-12 was determined. Assuming a mouse drinks about 8 mL of water daily, it consumed 20 mg/kg of the compound. Control untreated WT mice received water containing DMSO (0.36%) at the final concentration as in VBIT-4 or VBIT-12 drinking solutions. Mutant SOD1^G93A female mice were randomly divided to receive drinking water containing VBIT-4, VBIT-12, or DMSO for the control. Water consumption was verified daily.
Mean age of disease onset, defined as the time when mice reached peak body weight (A, B), and disease end stage, defined as the time when the mouse could not right itself within 20 s when placed on its side (C, D) of mutant SOD1G93A mice without (control, n = 10, blue) and with treatment of VBIT‐4 (n = 10, red) or VBIT‐12 (n = 10, green) through drinking water. The results are the means ± SD. (E–G) Mean (± SD) duration of early disease (from onset to 10% weight loss) (E), duration of late disease (from 10% weight loss to end stage) (F), and disease progression (from onset to end stage) (G). At each time point, the p‐ value was determined by a Student’s t‐test. Error bars denote SDs. Plot of averaged forelimb (H) and hindlimb (I) grip strength for SOD1G93A female mice untreated (n = 10, blue), treated with VBIT‐4 (n = 10, red), or treated with VBIT‐12 (n = 10, green) through the drinking water. SOD1G93A mice were monitored up to the end stage. The untreated SOD1G93A mice received water with the same concentration of DMSO as controls. At each time point, the p‐value was determined by a Student’s t‐test. Error bars denote SDs.
Table S1. Antibodies used in the study

VDAC1 oligomerization = settings: ref [49]; cited from earlier work
[2] = system: motor-neuron-like NSC-34 cells expressing human SOD1^G93A; assay: Viability of NSC-34 cells expressing mutant SOD1^G93A; type: cell-based; settings: NSC-34, human SOD1^G93A; VBIT-12 15 µM, 12 h, 24 h post-transfection; 490 nm; n = 3, means ± SEM
Experimental: (§2) Figure 3 VDAC1 oligomerization is increased in mutant SOD1^G93A spinal cord mitochondria. […] A cell viability analysis was performed using the CellTiter 96 AQueous One-Solution cell proliferation assay using a plate reader at 490 nm. (B,C) Spinal cord mitochondria (1 mg/mL) from non-transgenic, SOD1^WT or SOD1^G93A rats were incubated for 10 min at 30 °C in 10 mM Tricine, pH 8.2, with the indicated concentration of the crosslinking reagent EGS (B) or DSP (C). Sample buffer for electrophoresis containing 2-mercaptoethanol, except for DSP (S-S-containing reagent), was added, and the samples were subjected to SDS/PAGE (10% gel) and immunoblot analysis using anti-VDAC1 antibodies. (D,E) Spinal cord mitochondria (1 mg/mL, n = 3) from non-transgenic or SOD1^G93A mice were incubated for 20 min at 30 °C in PBS, pH 8.3, with the indicated concentration of EGS, and subjected to SDS-PAGE (10%), immunoblotting (D), and quantitative analysis (E). (F,G) Spinal cord mitochondria isolated from SOD1^G93A mice were pre-incubated with VBIT-4 (10 min, 20 μM) and subjected to cross linking as described in D. Samples were subjected to SDS/PAGE 4–15% gradient gel and immunoblotting using anti-VDAC1 antibodies (F) and to dimer quantitative analysis (G). VDAC1 dimer levels were quantified using ImageJ software. The positions of VDAC1 monomers, dimers, trimers, tetramers, and higher oligomers are indicated. […]

VDAC1 [3] = system: VDAC1; design: method as in PMID 27738100, PMID 30293774, PMID 31857488, PMID 34217890; settings: ref [49], [43], [44], [45]; cited from earlier work
[4] = system: mutant SOD1^G93A transgenic mice; assay: SOD1^G93A mouse ALS model, IP treatment; type: in vivo
Experimental: Mean age of disease onset, defined as the time when mice reached peak body weight as a function of time (A,B), and disease end stage, defined as the time when the mouse could not right itself within 20 s when placed on its side (C,D) considering mutant SOD1^G93A mice IP-injected every second day with 200 µL DMSO 4% (control, n = 10, blue) or with VBIT-12 (26 mg/kg) (n = 10, green). The results are the means ± SD. (E–G) The means ± SD for the duration of early disease (from onset to 10% weight loss) (E), duration of late disease (from 10% weight loss to end stage) (F), and disease progression (from onset to end stage) (G) are presented. Plots of the averaged forelimb (H) and hindlimb (I) grip strength for SOD1^G93A female mice untreated (n = 10, blue) or treated with VBIT-12 (n = 10, green). SOD1^G93A mice were monitored up to the end stage. At each time point, the p-value was determined by Student’s t-test with SD. * p < 0.05; ns, non-significant.
as §1
For intraperitoneal (IP) injection, VBIT-12 (80 mg/mL) in DMSO was diluted with saline, pH 7.0, to a final concentration of 3.25 mg/mL. Mice received 200 µL by IP injection resulting in a final VBIT-12 concentration of ~26 mg/Kg. VBIT-12 was IP injected every second day starting from day 60 for 12 weeks, and then the VBIT-12 final concentration was reduced to ~13 mg/Kg. The control group was IP injected with around 200 µL of DMSO (4%).

[5] = system: release of mitochondrial DNA (mtDNA); cGAS/STING; design: method as in PMID 34217890; settings: ref [45]; cited from earlier work
VDAC1 [6] = assay: VDAC1 oligomerization in spinal cord mitochondria (EGS crosslinking); type: biochemical; settings: spinal cord mitochondria 1 mg/mL from SOD1^G93A mice, VBIT-4 20 μM, 10 min pre-incubation, PBS pH 8.3, 20 min, 30 °C, immunoblot, dimer quantification, n = 3
Experimental: as §2

mice = settings: mouse, in vivo; cited from earlier work
From the text: Mutant SOD1^G93A female mice were divided into three groups (10 mice per group): a control group (DMSO), VBIT-4-, and VBIT-12-treated groups.

[7] = system: iPSC-derived motor neurons from ALS patients carrying mutations in TDP-43; design: method as in PMID 33031745; settings: TDP-43 mutations, ref [58]; cited from earlier work
[8] = SOD1^G93A female mice, IP 26 mg/kg every other day from day 60, then ~13 mg/Kg, n = 10, during disease progression, Student's t-test
[9] = SOD1^G93A mice, IP 26 mg/kg every other day from day 60 for 12 weeks, then ~13 mg/Kg, n = 10, vs DMSO 4%

Compound	disease onset (peak body weight) [1]	muscle endurance, hindlimb grip strength [1]	survival (disease end stage) [1]	effect on cells under physiological conditions (VDAC1 oligomerization)	prevention of VDAC1 oligomerization and apoptotic cell death (VDAC1 oligomerization)	prevention of cytosolic Ca^2+ elevation and ROS production (VDAC1 oligomerization)	prevention of mutant SOD1 cell toxicity (cell survival) [2]	inhibition of VDAC1 conductance (VDAC1 [3])	forelimb grip (pulling) strength [4, 8]	hindlimb grip (pulling) strength [4, 8]	maintenance of limb muscle strength over time ([4]; SOD1^G93A mice, IP 26 mg/kg every other day from day 60, then ~13 mg/Kg, n = 10, vs DMSO 4%)	disease onset [4, 9]	survival [4, 9]	muscle function and survival (summary) ([4]; SOD1^G93A transgenic mice, "daily treatment" as worded in the discussion)	inhibition of mtDNA release and inflammation [5]	inhibition of VDAC1 oligomerization (VDAC1 [6])	tolerability (mice)	prevention of cytosolic accumulation of mtDNA and inflammation [7]
O=C(O)CNC(=O)C1(Nc2ccccc2)CCN(Cc2cccc3ccccc23)CC1 [VBIT-12]	no effect on disease onset	some benefit on muscle endurance as measured by grip strength in the hindlimbs	no effect on disease onset (Figure S3A,B) or survival	no effect on cells under physiological conditions	prevent both VDAC1 oligomerization and apoptotic cell death	prevent VDAC1 oligomerization, and, thereby, apoptosis and apoptosis-associated processes such as cytosolic Ca^2+ elevation and ROS production	partially prevented the mutant SOD1 cell toxicity effect	inhibit VDAC1 conductance	significantly greater pulling strength	significantly greater pulling strength	maintained their limb muscle strength for a significantly more extended period of time	positive tendency in delaying disease onset (Figure 5A,B) and survival of SOD1^G93A mice, although this was not statistically significant	positive tendency in delaying disease onset (Figure 5A,B) and survival of SOD1^G93A mice, although this was not statistically significant	significantly improved muscle function, without extending survival				
O=C(CC(CO)N1CCN(c2ccc(OC(F)(F)F)cc2)CC1)Nc1ccc(Cl)cc1 (stereo not drawn) [VBIT-4]	no effect on disease onset		no effect on disease onset (Figure S3A,B) or survival	no effect on cells under physiological conditions	prevent both VDAC1 oligomerization and apoptotic cell death	prevent VDAC1 oligomerization, and, thereby, apoptosis and apoptosis-associated processes such as cytosolic Ca^2+ elevation and ROS production		inhibit VDAC1 conductance							inhibit the release of mitochondrial DNA (mtDNA) via preventing VDAC1 oligomerization and inhibiting inflammation	inhibited the oligomerization of VDAC1	well tolerated in mice	prevented the cytosolic accumulation of mtDNA and inflammation
